Reference: the NIST ThermoML archive (doi:10.1016/j.jct.2017.08.035)

Experiment: wn = mass fraction of the nth substance listed
Settings: for surface tension liquid-gas: Maximal bubble pressure; for mass density: 100 kPa, Liquid, Vibrating tube method

CCn1cc[n+](CCOC)c1.N#C[S-] [1-ethyl-3-(2-methoxyethyl)imidazolium thiocyanate] + O
Settings	mass density, w2 = 0.00246 [kg/m3]	mass density, w2 = 0.00426 [kg/m3]	mass density, w2 = 0.00608 [kg/m3]	mass density, w2 = 0.00832 [kg/m3]	mass density, w2 = 0.00975 [kg/m3]	surface tension liquid-gas, w2 = 0.00382 [mN/m]	surface tension liquid-gas, w2 = 0.00528 [mN/m]	surface tension liquid-gas, w2 = 0.00668 [mN/m]	surface tension liquid-gas, w2 = 0.00811 [mN/m]	surface tension liquid-gas, w2 = 0.00956 [mN/m]
298.15 K	1121.78	1121.54	1121.29	1120.96	1120.82	49.3	49.4	49.5	49.6	49.7
303.15 K	1118.56	1118.32	1118.08	1117.75	1117.6	49	49.1	49.2	49.3	49.4
308.15 K	1115.36	1115.12	1114.88	1114.54	1114.4	48.7	48.8	48.9	49	49.1
313.15 K	1112.18	1111.94	1111.7	1111.35	1111.21	48.4	48.5	48.6	48.8	48.9
318.15 K	1109.03	1108.77	1108.54	1108.18	1108.03	48.1	48.2	48.3	48.5	48.6
323.15 K	1105.88	1105.63	1105.39	1105.02	1104.87	47.8	47.9	48	48.1	48.2
328.15 K	1102.76	1102.5	1102.25	1101.87	1101.72	47.6	47.7	47.8	47.9	48
333.15 K	1099.65	1099.38	1099.13	1098.74	1098.59	47.4	47.5	47.6	47.7	47.8
338.15 K	1096.55	1096.28	1096.02	1095.62	1095.47	47.1	47.2	47.3	47.5	47.6
